According to patent US6395771B1, “Paclitaxel derivatives for the treatment of cancer” (Dabur Research Foundation, priority 2000, dated 2002):

Assays:
lung cancer cells (L132) = assay: MTT cytotoxicity assay, lung cancer cells; assay type: cell-based; parameters: key: —: Not active; =PT: Activity equivalent to Paclitaxel; <PT: Activity less than Paclitaxel; details: 24 to 96 hours, potency over paclitaxel
Protocol: (§1) In vitro cytotoxic activity of novel paclitaxel derivatives was determined by performing the MTT cytotoxicity assay (Mosmann T., J Immunological Methods, 65:55; 1983). Briefly, the cultured tumor cells were separately seeded in a 96-well culture plate and co-incubated with paclitaxel or its derivatives dissolved in methanol, dimethyl formamide, dimethyl sulfoxide or isopropyl alcohol with relevant controls at 37° C. in a CO2 incubator. After 24 to 96 hours, the assay was terminated and percent cyotoxicities calculated.

leukemia cells (MOLT-4) = assay: MTT cytotoxicity assay, leukemia cells; assay type: cell-based; parameters: key: —: Not active; =PT: Activity equivalent to Paclitaxel; <PT: Activity less than Paclitaxel; details: MOLT-4 leukemia cells, 24 to 96 hours, potency over paclitaxel
Protocol: as §1

[1] = tested on: ovarian cancer cells (PA-1); assay: MTT cytotoxicity assay, ovarian cancer cells; assay type: cell-based; parameters: key: —: Not active; =PT: Activity equivalent to Paclitaxel; <PT: Activity less than Paclitaxel; details: PA-1 ovarian cancer cells, 24 to 96 hours, potency over paclitaxel
Protocol: as §1

[2] = tested on: cervical cancer cells (SiHa); assay: MTT cytotoxicity assay, cervical cancer cells; assay type: cell-based; parameters: key: —: Not active; =PT: Activity equivalent to Paclitaxel; <PT: Activity less than Paclitaxel; details: 24 to 96 hours, potency over paclitaxel
Protocol: as §1

[3] = tested on: breast cancer cells (HBL100); assay: MTT cytotoxicity assay, breast cancer cells; assay type: cell-based; parameters: key: —: Not active; =PT: Activity equivalent to Paclitaxel; <PT: Activity less than Paclitaxel; details: 24 to 96 hours, potency over paclitaxel
Protocol: as §1

mice = details: cited from earlier work

Row | SMILES | Potency with respect to paclitaxel, L132 (lung cancer cells (L132)) | Potency with respect to paclitaxel, MOLT-4 (leukemia cells (MOLT-4)) | Potency with respect to paclitaxel, PA-1 [1] | Potency with respect to paclitaxel, SiHa [2] | Potency with respect to paclitaxel, HBL100 [3] | toxic dose (mice; administered in the Cremophor vehicle) | Maximum Tolerated Dose (MTD) (mice; mice, ip administration)
1 | CC(=O)OC1C(=O)C2(C)C(O)CC3OCC3(OC(C)=O)C2C(OC(=O)c2ccccc2)C2(O)CC(OC(=O)C(OC(=O)CNC(=O)CNC(=O)OC(C)(C)C)C(NC(=O)c3ccccc3)c3ccccc3)C(C)=C1C2(C)C (stereo not drawn) [AV-4S] | 56.3 | 13.2 | 9.5 | — | 3.3 |  | 
2 | CC(=O)OC1C(=O)C2(C)C(O)CC3OCC3(OC(C)=O)C2C(OC(=O)c2ccccc2)C2(O)CC(OC(=O)C(OC(=O)CC(C)(C)C(=O)O)C(NC(=O)c3ccccc3)c3ccccc3)C(C)=C1C2(C)C (stereo not drawn) [AV-82B] | — | — | — | >25.0 | >170 |  | 
3 | CC(=O)OC1C(=O)C2(C)C(O)CC3OCC3(OC(C)=O)C2C(OC(=O)c2ccccc2)C2(O)CC(OC(=O)C(OC(=O)c3cccc(C(F)(F)F)c3)C(NC(=O)c3ccccc3)c3ccccc3)C(C)=C1C2(C)C (stereo not drawn) [AV-86B] |  | — | — | 2.5 | <PT |  | 
4 | CC(=O)OC1C(=O)C2(C)C(O)CC3OCC3(OC(C)=O)C2C(OC(=O)c2ccccc2)C2(O)CC(OC(=O)C(OC(=O)c3ccc(F)cc3F)C(NC(=O)c3ccccc3)c3ccccc3)C(C)=C1C2(C)C (stereo not drawn) [AV-103S] | — | — | — | 1.4 |  |  | 
5 | CC(=O)OC1C(=O)C2(C)C(O)CC3OCC3(OC(C)=O)C2C(OC(=O)c2ccccc2)C2(O)CC(OC(=O)C(OC(=O)c3cccc(F)c3F)C(NC(=O)c3ccccc3)c3ccccc3)C(C)=C1C2(C)C (stereo not drawn) [AV-105S] | — | — | — | 1.4 | 3.8 |  | 
6 | CC(=O)OC1C(=O)C2(C)C(O)CC3OCC3(OC(C)=O)C2C(OC(=O)c2ccccc2)C2(O)CC(OC(=O)C(OC(=O)C(OC(C)=O)c3ccccc3)C(NC(=O)c3ccccc3)c3ccccc3)C(C)=C1C2(C)C (stereo not drawn) [AV-125S] | — | — | =PT | — | — |  | 
7 | CC(=O)OC(C)C(=O)OC1CC2OCC2(OC(C)=O)C2C(OC(=O)c3ccccc3)C3(O)CC(OC(=O)C(OC(=O)OCC(Cl)(Cl)Cl)C(NC(=O)c4ccccc4)c4ccccc4)C(C)=C(C(OC(C)=O)C(=O)C12C)C3(C)C (stereo not drawn) [AV-126S] | — | — | =PT | — | — |  | 
8 | CC(=O)CC(=O)OC(C(=O)OC1CC2(O)C(OC(=O)c3ccccc3)C3C4(OC(C)=O)COC4CC(O)C3(C)C(=O)C(OC(C)=O)C(=C1C)C2(C)C)C(NC(=O)c1ccccc1)c1ccccc1 (stereo not drawn) [AV-147A] | — | — | =PT | — | — |  | 
9 | CC(=O)OC1C(=O)C2(C)C(O)CC3OCC3(OC(C)=O)C2C(OC(=O)c2ccccc2)C2(O)CC(OC(=O)C(OC(=O)CSc3ccccc3)C(NC(=O)c3ccccc3)c3ccccc3)C(C)=C1C2(C)C (stereo not drawn) [AV-150S] | — | — | =PT | — | — |  | 
10 | CC(=O)O[C@H]1C(=O)[C@@]2(C)[C@H]([C@H](OC(=O)c3ccccc3)[C@]3(O)C[C@H](OC(=O)[C@H](O)[C@@H](NC(=O)c4ccccc4)c4ccccc4)C(C)=C1C3(C)C)[C@]1(OC(C)=O)CO[C@@H]1C[C@@H]2O [paclitaxel, Paclitaxel] |  |  |  |  |  | > 30 mg/kg | 50 mg/kg
